Source: patent US7622489B2, “Mitotic kinesin inhibitors” (Merck & Co., Inc., priority 2002, dated 2009)

Molecular target: T1, human KSP motor domain (KSP(367H)) (Homo sapiens, UniProt P52732)
T1 construct: were used to amplify the motor domain and the neck linker region; made in house; host or cells: E. coli BL21 (DE3), vector pRSETa
T1 sequence (P52732 18-359 limits assumed): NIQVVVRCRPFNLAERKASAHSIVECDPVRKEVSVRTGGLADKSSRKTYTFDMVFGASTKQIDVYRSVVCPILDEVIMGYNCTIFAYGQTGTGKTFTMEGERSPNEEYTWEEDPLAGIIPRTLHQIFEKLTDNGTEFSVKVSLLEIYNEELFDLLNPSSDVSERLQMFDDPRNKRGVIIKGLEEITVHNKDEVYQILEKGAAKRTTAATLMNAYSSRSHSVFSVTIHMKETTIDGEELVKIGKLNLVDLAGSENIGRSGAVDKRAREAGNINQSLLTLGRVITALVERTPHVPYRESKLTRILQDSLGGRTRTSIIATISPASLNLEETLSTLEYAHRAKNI
Assay: Kinesin ATPhase In Vitro Assay
Type: biochemical
Conditions: kinesin motor domain with microtubules, 1 mM ATP, 23° C.; free phosphate by quinaldine red/ammonium molybdate, 540 nm
Excerpt: I. Kinesin ATPhase In Vitro Assay
Cloning and Expression of Human Poly-Histidine Tagged KSP Motor Domain (KSP(367H))
Plasmids for the expression of the human KSP motor domain construct were cloned by PCR using a pBluescript full length human KSP construct (Blangy et al., Cell, vol. 83, pp1159-1169, 1995) as a template. The N-terminal primer 5′-[…] (SEQ. ID. NO.: 1) and the C-terminal primer 5′-[…] […] (SEQ. ID. NO.: 2) were used to amplify the motor domain and the neck linker region. The PCR products were digested with AseI and XhoI, ligated into the NdeIlXhoI digestion product of pRSETa (Invitrogen) and transformed into E. coli BL21 (DE3).
Cells were grown at 37 IC to an OD600 of 0.5. […]
The kinesin motor domain is incubated with microtubules, 1 mM ATP (1:1 MgCl2: Na-ATP), and compound at 23° C. in buffer containing 80 mM K-HEPES (pH 7.0), 1 mM EGTA, 1 mM DTT, 1 mM MgCl2, and 50 mM KCl. […] Free phosphate from the ATP hydrolysis reaction is measured via a quinaldine red/ammonium molybdate assay by adding 150 μl of quench C buffer containing a 2:1 ratio of quench A:quench B. Quench A contains 0.1 mg/mil quinaldine red and 0.14% polyvinyl alcohol; quench B contains 12.3 mM ammonium molybdate tetrahydrate in 1.15 M sulfuric acid. The reaction is incubated for 10 minutes at 23° C., and the absorbance of the phospho-molybdate complex is measured at 540 nm.

SMILES	IC50 [µM]
CNCC(C)CN(C)C(=O)N1CCC(c2cc(F)ccc2F)=CC1c1cccc(O)c1 (centres unmarked) [Compound 3-3, 4-(2,5-difluorophenyl)-6-(3-hydroxyphenyl)-N-methyl-N-[2-methyl-3-(methylamino)propyl]-3,6-dihydropyridine-1(2H)-carboxamide]	≤ 15
CC(C)[C@H](N)C(=O)N1CCC(c2cc(F)ccc2F)=CC1c1cccc(O)c1 (some centres unmarked) [Compound 2-2]	≤ 15
